Test results published in article PMC6430684 (Cell chemical biology, 2019).

Target: HSP90α (Homo sapiens, UniProt P07900)
Experiment: competitive fluorescence polarization with geldanamycin-FITC
Assay type: binding

Work on `O=C1C=C(Nc2ccc3cnccc3c2)c2ccccc2C1=O` [YZ129, 4-(isoquinolin-6-ylamino)naphthalene-1,2-dione] yielded an IC50 of 29.5 nM.
